# Tested on: healthy volunteers
# Test: Human Study 2: treatment-emergent adverse events (TEAE), safety, Modified OAA/S, DSST, BIS
# Format: in vivo
# Conditions: for DSST mean change from baseline: 1 h post-treatment
# Protocol: In human study 1, fospropofol disodium was formulated as a sterile aqueous solution at a concentration of 20 mg/mL. Each vial provided contained 20 mL of solution, suitable for intravenous injection. Fospropofol was administered as a single dose of 400 mg orally, directly into the duodenum by gastroscopy or intravenously over 10 min. In human study 2, fospropofol disodium in capsules (200 mg) or matching placebo was administered orally.
# A second single ascending dose study was subsequently performed to assess the safety, tolerability, and pharmacokinetics of oral administration of fospropofol as a capsule. This was a double-blind, randomized, crossover, placebo-controlled, single ascending dose study. Ten healthy volunteers were enrolled, 6 males and 4 females between 18 and 45 years of age inclusive with a body mass index between 18 and 28 kg/m^2. Each subject received four ascending oral doses of fospropofol disodium (200, 600, 1,000 and 1,200 mg) and one of placebo. Placebo was administered randomly, in one of the five periods. Subjects stayed in the clinical research unit over 3 days per treatment for five consecutive treatments. Between treatments, there were wash-out periods of at least 6 days, during which interim safety evaluations were made to assess the safety of the subsequent higher doses. Fopropofol disodium in capsules (200 mg) or matching placebo was administered orally. Pharmacokinetic parameters, safety and pharmacodynamic effect were assessed in a manner similar to that in Study 1 described above. In addition, the digit symbol substitution test (DSST) and BIS Index (a commercially available EEG derived measure of anesthesia and sedation, Coviden, Mansfield, Mass., USA) were added as additional pharmacodynamics measures.
# [1] = 200 mg oral, listed as Fospropofol
# [2] = 600 mg oral, listed as Fospropofol
# [3] = 1000 mg oral, listed as Fospropofol
# [4] = 1200 mg oral, listed as Fospropofol
smiles,measurement,setting,value
CC(C)c1cccc(C(C)C)c1OCOP(=O)(O)O [fospropofol],BIS score range,200 mg,80-98%
same,"TEAE EYE DISORDERS, subjects (%)",200 mg oral,(10%)
same,"TEAE GASTROINTESTINAL DISORDERS, events (E)",200 mg oral,2
same,"TEAE GASTROINTESTINAL DISORDERS, subjects (%)",200 mg oral,(10%)
same,"TEAE GENERAL DISORDERS AND ADMINISTRATION SITE CONDITIONS, subjects (%)",200 mg oral,(10%)
same,"TEAE INFECTIONS AND INFESTATIONS, subjects (%)",200 mg oral,(10%)
same,"TEAE MUSCULOSKELETAL AND CONNECTIVE DISORDERS, subjects (%)",200 mg oral,(10%)
same,"TEAE NERVOUS SYSTEM DISORDERS, events (E)",200 mg oral,10
same,"TEAE NERVOUS SYSTEM DISORDERS, subjects (%)",200 mg oral,(70%)
same,"TEAE RESPIRATORY THORACIC AND MEDIASTINAL DISORDERS, subjects (%)",200 mg oral,(10%)
same,"TEAE TOTAL, events (E)",200 mg oral,18
same,"TEAE TOTAL, subjects (%)",200 mg oral,80%
same,"TEAE VASCULAR DISORDERS, subjects (%)",200 mg oral,(10%)
same,"TEAE abdominal pain, subjects (%)",200 mg oral,(10%)
same,"TEAE eye irritation, subjects (%)",200 mg oral,(10%)
same,"TEAE feeling hot, subjects (%)",200 mg oral,(10%)
same,"TEAE nausea, subjects (%)",200 mg oral,(10%)
same,"TEAE paraesthesia oral, subjects (%)",200 mg oral,(30%)
same,"TEAE paraesthesia, events (E)",200 mg oral,3
same,"TEAE paraesthesia, subjects (%)",200 mg oral,(20%)
same,"TEAE pharyngolaryngeal pain, subjects (%)",200 mg oral,(10%)
same,"TEAE rhinitis, subjects (%)",200 mg oral,(10%)
same,"TEAE sensation of heaviness, subjects (%)",200 mg oral,(10%)
same,"TEAE somnolence, subjects (%)",200 mg oral,40%
same,"TEAE vein pain, subjects (%)",200 mg oral,(10%)
same,"TEAE TOTAL, subjects (%)",[1],(80%)
same,"TEAE somnolence, subjects (%)",[1],(10%)
same,DSST mean change from baseline,200 mg,6
same,BIS score range,600 mg,71-98%
same,"TEAE GASTROINTESTINAL DISORDERS, events (E)",600 mg oral,4
same,"TEAE GASTROINTESTINAL DISORDERS, subjects (%)",600 mg oral,(30%)
same,"TEAE GENERAL DISORDERS AND ADMINISTRATION SITE CONDITIONS, events (E)",600 mg oral,5
same,"TEAE GENERAL DISORDERS AND ADMINISTRATION SITE CONDITIONS, subjects (%)",600 mg oral,(40%)
same,"TEAE NERVOUS SYSTEM DISORDERS, events (E)",600 mg oral,16
same,"TEAE NERVOUS SYSTEM DISORDERS, subjects (%)",600 mg oral,(70%)
same,"TEAE PSYCHIATRIC DISORDERS, subjects (%)",600 mg oral,(10%)
same,"TEAE REPRODUCTIVE SYSTEM AND BREAST DISORDERS, subjects (%)",600 mg oral,(10%)
same,"TEAE RESPIRATORY THORACIC AND MEDIASTINAL DISORDERS, subjects (%)",600 mg oral,(10%)
same,"TEAE TOTAL, events (E)",600 mg oral,29
same,"TEAE TOTAL, subjects (%)",600 mg oral,90%
same,"TEAE VASCULAR DISORDERS, subjects (%)",600 mg oral,(10%)
same,"TEAE abdominal pain, subjects (%)",600 mg oral,(10%)
same,"TEAE bowel sounds abnormal, subjects (%)",600 mg oral,(10%)
same,"TEAE dizziness, subjects (%)",600 mg oral,(20%)
same,"TEAE dysgeusia, subjects (%)",600 mg oral,(10%)
same,"TEAE euphoric mood, subjects (%)",600 mg oral,(10%)
same,"TEAE fatigue, subjects (%)",600 mg oral,(20%)
same,"TEAE feeling hot, subjects (%)",600 mg oral,(30%)
same,"TEAE headache, events (E)",600 mg oral,3
same,"TEAE headache, subjects (%)",600 mg oral,(20%)
same,"TEAE nausea, subjects (%)",600 mg oral,(10%)
same,"TEAE paraesthesia, subjects (%)",600 mg oral,(50%)
same,"TEAE perineal pain, subjects (%)",600 mg oral,(10%)
same,"TEAE pharyngolaryngeal pain, subjects (%)",600 mg oral,(10%)
same,"TEAE phlebitis superficial, subjects (%)",600 mg oral,(10%)
same,"TEAE proctalgia, subjects (%)",600 mg oral,(10%)
same,"TEAE somnolence, subjects (%)",600 mg oral,50%
same,"TEAE TOTAL, subjects (%)",[2],(90%)
same,"TEAE somnolence, subjects (%)",[2],(50%)
same,DSST mean change from baseline,600 mg,−5
same,BIS score range,"1,000 mg",70-98%
same,"TEAE CARDIAC DISORDERS, subjects (%)",1000 mg oral,(10%)
same,"TEAE GASTROINTESTINAL DISORDERS, subjects (%)",1000 mg oral,(40%)
same,"TEAE GENERAL DISORDERS AND ADMINISTRATION SITE CONDITIONS, subjects (%)",1000 mg oral,(30%)
same,"TEAE NERVOUS SYSTEM DISORDERS, events (E)",1000 mg oral,14
same,"TEAE NERVOUS SYSTEM DISORDERS, subjects (%)",1000 mg oral,(70%)
same,"TEAE REPRODUCTIVE SYSTEM AND BREAST DISORDERS, subjects (%)",1000 mg oral,(10%)
same,"TEAE RESPIRATORY THORACIC AND MEDIASTINAL DISORDERS, subjects (%)",1000 mg oral,(10%)
same,"TEAE TOTAL, events (E)",1000 mg oral,28
same,"TEAE TOTAL, subjects (%)",1000 mg oral,80%
same,"TEAE VASCULAR DISORDERS, events (E)",1000 mg oral,4
same,"TEAE VASCULAR DISORDERS, subjects (%)",1000 mg oral,(30%)
same,"TEAE dysphagia, subjects (%)",1000 mg oral,(10%)
same,"TEAE fatigue, subjects (%)",1000 mg oral,(10%)
same,"TEAE feeling hot, subjects (%)",1000 mg oral,(20%)
same,"TEAE headache, subjects (%)",1000 mg oral,(20%)
same,"TEAE nausea, subjects (%)",1000 mg oral,(30%)
same,"TEAE palpitations, subjects (%)",1000 mg oral,(10%)
same,"TEAE paraesthesia oral, subjects (%)",1000 mg oral,(10%)
same,"TEAE paraesthesia, events (E)",1000 mg oral,7
same,"TEAE paraesthesia, subjects (%)",1000 mg oral,(60%)
same,"TEAE perineal pain, subjects (%)",1000 mg oral,(10%)
same,"TEAE phlebitis superficial, events (E)",1000 mg oral,4
same,"TEAE phlebitis superficial, subjects (%)",1000 mg oral,(30%)
same,"TEAE somnolence, subjects (%)",1000 mg oral,40%
same,"TEAE throat irritation, subjects (%)",1000 mg oral,(10%)
same,subjects with somnolence considered severe,1000 mg oral,1
same,"TEAE TOTAL, subjects (%)",[3],(80%)
same,"TEAE somnolence, subjects (%)",[3],(40%)
same,DSST mean change from baseline,"1,000 mg",−11
same,lowest Modified OAA/S score,"1,000 mg, Subject 003, 1 and 1.5 h after treatment",3
same,BIS score range,"1,200 mg",70-98%
same,"TEAE GASTROINTESTINAL DISORDERS, subjects (%)",1200 mg oral,(30%)
same,"TEAE GENERAL DISORDERS AND ADMINISTRATION SITE CONDITIONS, events (E)",1200 mg oral,6
same,"TEAE GENERAL DISORDERS AND ADMINISTRATION SITE CONDITIONS, subjects (%)",1200 mg oral,(30%)
same,"TEAE INFECTIONS AND INFESTATIONS, subjects (%)",1200 mg oral,(14%)
same,"TEAE NERVOUS SYSTEM DISORDERS, events (E)",1200 mg oral,13
same,"TEAE NERVOUS SYSTEM DISORDERS, subjects (%)",1200 mg oral,(90%)
same,"TEAE PSYCHIATRIC DISORDERS, subjects (%)",1200 mg oral,(10%)
same,"TEAE REPRODUCTIVE SYSTEM AND BREAST DISORDERS, subjects (%)",1200 mg oral,(10%)
same,"TEAE RESPIRATORY THORACIC AND MEDIASTINAL DISORDERS, subjects (%)",1200 mg oral,(10%)
same,"TEAE TOTAL, events (E)",1200 mg oral,26
same,"TEAE TOTAL, subjects (%)",1200 mg oral,90%
same,"TEAE VASCULAR DISORDERS, subjects (%)",1200 mg oral,(10%)
same,"TEAE defecation urgency, subjects (%)",1200 mg oral,(10%)
same,"TEAE dyspnoea, subjects (%)",1200 mg oral,(10%)
same,"TEAE euphoric mood, subjects (%)",1200 mg oral,(10%)
same,"TEAE fatigue, subjects (%)",1200 mg oral,(10%)
same,"TEAE feeling hot, events (E)",1200 mg oral,4
same,"TEAE feeling hot, subjects (%)",1200 mg oral,(30%)
same,"TEAE headache, subjects (%)",1200 mg oral,(10%)
same,"TEAE nausea, subjects (%)",1200 mg oral,(20%)
same,"TEAE paraesthesia oral, subjects (%)",1200 mg oral,(10%)
same,"TEAE paraesthesia, subjects (%)",1200 mg oral,(30%)
same,"TEAE perineal pain, subjects (%)",1200 mg oral,(10%)
same,"TEAE somnolence, subjects (%)",1200 mg oral,80%
same,"TEAE vein pain, subjects (%)",1200 mg oral,(10%)
same,subjects with somnolence considered severe,1200 mg oral,1
same,"TEAE TOTAL, subjects (%)",[4],(90%)
same,"TEAE somnolence, subjects (%)",[4],(80%)
same,subjects with Modified OAA/S score of 4,"1,200 mg, 1.5-h time point",40%
same,DSST mean change from baseline,"1,200 mg",−13
same,"laboratory values, vital signs, ECGs, physical examinations","200-1,200 mg oral",no changes
same,serious adverse events,"200-1,200 mg oral",No subject experienced a SAE
same,severity of most TEAEs,Study 2,mild or moderate
same,"nausea, rate of occurrence","Study 2, all treatments",50%
same,"paresthesia, rate of occurrence","Study 2, all treatments",60%
same,"phlebitis superficial, rate of occurrence","Study 2, all treatments",50%
same,mean BIS scores,"all time points, all treatments",> 90%
same,subjects with Modified OAA/S score of 5,"at most time points, each treatment group",≥ 80%
